Measurements as given in the NIST ThermoML archive (doi:10.1016/j.jct.2012.08.010).

Assay: xn = mol fraction of the nth substance listed
Conditions: 101 kPa, Liquid, Vibrating tube method

C=C[Si]1(C)O[Si](C)(C=C)O[Si](C)(C=C)O[Si](C)(C=C)O1 (stereo not given) [2,4,6,8-tetramethyl-2,4,6,8-tetravinylcycloterasiloxane] + Cc1ccc(C)cc1
mass density [kg/m3]
Conditions | 288.15 K | 298.15 K | 308.15 K | 318.15 K | 328.15 K
x1 = 0.0501 | 882.57 | 873.71 | 864.79 | 855.81 | 846.77
x1 = 0.1045 | 898.18 | 889.15 | 879.99 | 870.82 | 861.58
x1 = 0.1528 | 909.95 | 900.78 | 891.46 | 882.13 | 872.74
x1 = 0.2005 | 919.97 | 910.61 | 901.17 | 891.84 | 882.31
x1 = 0.25 | 929.05 | 919.68 | 910.08 | 900.53 | 890.92
x1 = 0.3017 | 937.34 | 927.86 | 918.16 | 908.52 | 898.83
x1 = 0.3444 | 943.41 | 933.87 | 924.09 | 914.37 | 904.6
x1 = 0.3985 | 950.18 | 940.53 | 930.74 | 920.97 | 911.16
x1 = 0.4489 | 955.85 | 946.14 | 936.28 | 926.45 | 916.57
x1 = 0.4989 | 960.92 | 951.15 | 941.23 | 931.34 | 921.41
x1 = 0.5495 | 965.55 | 955.72 | 945.76 | 935.82 | 925.84
x1 = 0.5985 | 969.61 | 959.72 | 949.73 | 939.75 | 929.74
x1 = 0.649 | 973.48 | 963.54 | 953.51 | 943.48 | 933.43
x1 = 0.6941 | 976.62 | 966.59 | 956.55 | 946.5 | 936.42
x1 = 0.7484 | 980.08 | 970.08 | 959.96 | 949.86 | 939.75
x1 = 0.7992 | 983.04 | 972.97 | 962.87 | 952.74 | 942.62
x1 = 0.8375 | 985.13 | 975.04 | 964.91 | 954.76 | 944.62
x1 = 0.9462 | 990.42 | 980.26 | 970.11 | 959.92 | 949.73
x1 = 1 | 992.74 | 982.54 | 972.34 | 962.14 | 951.94

C=C[Si]1(C)O[Si](C)(C=C)O[Si](C)(C=C)O[Si](C)(C=C)O1 (stereo not given) [2,4,6,8-tetramethyl-2,4,6,8-tetravinylcycloterasiloxane] + Cc1cccc(C)c1
mass density [kg/m3]
Conditions | 288.15 K | 298.15 K | 308.15 K | 318.15 K | 328.15 K
x1 = 0.05 | 885.05 | 876.18 | 867.36 | 858.49 | 849.53
x1 = 0.1062 | 900.56 | 891.58 | 882.48 | 873.4 | 864.24
x1 = 0.1505 | 910.91 | 901.78 | 892.55 | 883.33 | 874.04
x1 = 0.2005 | 921.17 | 911.87 | 902.51 | 893.18 | 883.77
x1 = 0.2501 | 930.07 | 920.57 | 911.13 | 901.66 | 892.14
x1 = 0.3023 | 938.25 | 928.62 | 919.04 | 909.46 | 899.85
x1 = 0.3442 | 944.08 | 934.35 | 924.72 | 915.05 | 905.37
x1 = 0.3985 | 950.83 | 941.02 | 931.29 | 921.55 | 911.8
x1 = 0.4491 | 956.41 | 946.51 | 936.74 | 926.91 | 917.12
x1 = 0.499 | 961.37 | 951.41 | 941.59 | 931.69 | 921.85
x1 = 0.5495 | 965.9 | 955.89 | 946 | 936.07 | 926.17
x1 = 0.5981 | 969.84 | 959.8 | 949.86 | 939.92 | 929.94
x1 = 0.6498 | 973.72 | 963.58 | 953.57 | 943.62 | 933.58
x1 = 0.6946 | 976.79 | 966.61 | 956.57 | 946.59 | 936.5
x1 = 0.7483 | 980.15 | 969.99 | 959.9 | 949.87 | 939.74
x1 = 0.7983 | 983.05 | 972.9 | 962.78 | 952.69 | 942.58
x1 = 0.8489 | 985.74 | 975.61 | 965.47 | 955.35 | 945.21
x1 = 0.9463 | 990.44 | 980.3 | 970.11 | 959.94 | 949.75
x1 = 1 | 992.74 | 982.54 | 972.34 | 962.14 | 951.94
